The text below walks through data of ChEMBL document CHEMBL1144842, “Design and campaign synthesis of piperidine- and thiazole-based histone deacetylase inhibitors” (Bioorg Med Chem Lett, 2008).

Activity calls are given as the source filed them. The calls are words filed in the database; no cut-off is given here.

Some targets named below: Cytochrome P450 3A4 (Homo sapiens, UniProt P08684); Cytochrome P450 2D6 (Homo sapiens, UniProt P10635); Cytochrome P450 2C9 (Homo sapiens, UniProt P11712); Cytochrome P450 2C19 (Homo sapiens, UniProt P33261).
The next data set deals with Histone deacetylase. Kind of data set: Inhibition of human HDAC in HeLa cells. The format is cell-based.
The next data set has as its target Histone deacetylase 1 (Homo sapiens, UniProt Q13547). Kind of data set: Inhibition of human recombinant HDAC1 expressed in Hi5 cells. The arrangement: species or system BTI-TN-5B1-4.
A further data set relates to HCT-116. Kind of data set: Antiproliferative activity against human HCT116 cells after 72 hrs by MTS assay. Type of data set: functional, cell-based. As to conditions: HCT-116, 72 h. Background: Tetrazolium assays rely on reduction of a dye to a coloured formazan, in cell work by metabolically active cells.
Data set [1] is described as follows: Clearance in Han Wistar rat at 5 umol/kg, iv. As to conditions: in vivo. The format is ADME, organism-based.
The nature of data set [2]: Half life in Han Wistar rat at 5 umol/kg, iv. The format is ADME, organism-based. To be noted: in vivo.
The nature of data set [3]: Volume of distribution in steady state in Han Wistar rat at 5 umol/kg, iv. Type of data set: ADME, organism-based. To be noted: in vivo, read-out: Vdss.
Data set [4] can be described thus: Unbound ligand in Han Wistar rat plasma at 10 umol/kg, po. Type of data set: ADME, organism-based.
Data set [5] can be described thus: Unbound ligand in mouse plasma at 54.8 umol/kg, po. Type of data set: ADME, organism-based.
Data set [6] is described as follows: Lipophilicity, log D of the compound. To be noted: octanol/water.
The nature of data set [7]: Half life in Han Wistar rat at 10 umol/kg, po. The format is ADME, organism-based. To be noted: in vivo.
Data set [8] is described as follows: Half life in mouse at 54.8 umol/kg, po. To be noted: in vivo. Type of data set: ADME, organism-based.
The test system of the next data set is Homo sapiens. Kind of data set: Antitumor activity against human A549a xenografted mouse at 12.5 mg/kg, po for 18 days. Type of data set: functional, organism-based. The arrangement: dose 12.5 mg/kg. A general note: A xenograft is tissue or cells of one species grown in another, often human tumour cells in immunodeficient mice.
Data set [9] can be described thus: Clearance in Han Wistar rat at 2.5 umol/kg, iv. Type of data set: ADME, organism-based. To be noted: in vivo.
A short description of data set [10]: Clearance in mouse at 5 umol/kg, iv. Type of data set: ADME, organism-based. To be noted: in vivo.
Data set [11] is described as follows: Clearance in Beagle dog at 0.8 umol/kg, iv. The format is ADME, organism-based, Canis lupus familiaris. As to conditions: in vivo.
The nature of data set [12]: Half life in Han Wistar rat at 2.5 umol/kg, iv. Type of data set: ADME, organism-based. To be noted: in vivo.
Data set [13] is described as follows: Half life in mouse at 5 umol/kg, iv. The format is ADME, organism-based. As to conditions: in vivo.
Data set [14] is described as follows: Half life in Beagle dog at 0.8 umol/kg, iv. Type of data set: ADME, organism-based, Canis lupus familiaris. To be noted: in vivo.
Data set [15] is described as follows: Volume of distribution in steady state in Han Wistar rat at 2.5 umol/kg, iv. To be noted: in vivo, read-out: Vdss. The format is ADME, organism-based.
A short description of data set [16]: Volume of distribution in steady state in mouse at 5 umol/kg, iv. The format is ADME, organism-based. To be noted: in vivo, read-out: Vdss.
The nature of data set [17]: Volume of distribution in steady state in Beagle dog at 0.8 umol/kg, iv. Type of data set: ADME, organism-based, Canis lupus familiaris. As to conditions: in vivo, read-out: Vdss.
Data set [18] in a line: Half life in Han Wistar rat at 54.8 umol/kg, po. Type of data set: ADME, organism-based. To be noted: in vivo.
Data set [19] is described as follows: Half life in Beagle dog at 3 umol/kg, po. The format is ADME, organism-based, Canis lupus familiaris. To be noted: in vivo.
Data set [20] can be described thus: Unbound ligand in Han Wistar rat plasma at 54.8 umol/kg, po. The format is ADME, organism-based. To be noted: at 54.8 µmol/kg.
Data set [21] is described as follows: Unbound ligand in Beagle dog plasma at 3 umol/kg, po. To be noted: at 3 µmol/kg. The format is ADME, organism-based, Canis lupus familiaris.
Data set [22] can be described thus: Half life in mouse at 70.9 umol/kg, po. To be noted: in vivo. The format is ADME, organism-based.
The nature of data set [23]: Solubility of the compound at pH 7.4. To be noted: buffer.
Data set [24] is described as follows: Unbound ligand in Han Wistar rat plasma at 70.9 umol.kg, po. Type of data set: ADME, organism-based.
Data set [25] is described as follows: Half life in Han Wistar rat at 70.9 umol/kg, po. As to conditions: in vivo. Type of data set: ADME, organism-based.

Chain of Cytochrome P450 2D6 (P10635 whole entry): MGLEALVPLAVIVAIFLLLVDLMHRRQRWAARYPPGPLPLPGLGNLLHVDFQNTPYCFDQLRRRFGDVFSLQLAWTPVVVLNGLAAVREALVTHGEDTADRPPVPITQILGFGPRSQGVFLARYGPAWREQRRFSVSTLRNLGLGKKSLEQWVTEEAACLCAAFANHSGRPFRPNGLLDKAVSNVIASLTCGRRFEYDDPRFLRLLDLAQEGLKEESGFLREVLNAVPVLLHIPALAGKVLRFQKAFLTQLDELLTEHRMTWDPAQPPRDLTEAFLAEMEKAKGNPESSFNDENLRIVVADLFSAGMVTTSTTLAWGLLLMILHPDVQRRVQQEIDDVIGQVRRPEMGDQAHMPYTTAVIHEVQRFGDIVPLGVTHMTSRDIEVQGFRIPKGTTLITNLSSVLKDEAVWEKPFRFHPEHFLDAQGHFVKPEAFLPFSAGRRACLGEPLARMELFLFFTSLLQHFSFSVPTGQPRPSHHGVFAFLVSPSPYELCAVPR
Chain of Histone deacetylase 1 (Q13547 whole entry): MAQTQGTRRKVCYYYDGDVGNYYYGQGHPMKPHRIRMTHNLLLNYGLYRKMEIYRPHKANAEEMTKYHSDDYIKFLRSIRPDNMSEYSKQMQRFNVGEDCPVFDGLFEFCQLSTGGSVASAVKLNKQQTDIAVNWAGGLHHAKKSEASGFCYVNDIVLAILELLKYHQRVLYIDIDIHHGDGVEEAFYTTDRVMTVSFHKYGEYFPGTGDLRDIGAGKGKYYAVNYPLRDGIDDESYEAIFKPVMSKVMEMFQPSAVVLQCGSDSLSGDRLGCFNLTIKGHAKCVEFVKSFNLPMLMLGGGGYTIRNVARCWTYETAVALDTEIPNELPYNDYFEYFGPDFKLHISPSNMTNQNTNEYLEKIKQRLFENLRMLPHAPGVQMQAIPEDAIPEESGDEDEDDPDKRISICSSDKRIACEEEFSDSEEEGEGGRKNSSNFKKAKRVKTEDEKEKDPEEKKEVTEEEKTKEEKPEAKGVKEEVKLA
Chain of Cytochrome P450 2C9 (P11712 whole entry): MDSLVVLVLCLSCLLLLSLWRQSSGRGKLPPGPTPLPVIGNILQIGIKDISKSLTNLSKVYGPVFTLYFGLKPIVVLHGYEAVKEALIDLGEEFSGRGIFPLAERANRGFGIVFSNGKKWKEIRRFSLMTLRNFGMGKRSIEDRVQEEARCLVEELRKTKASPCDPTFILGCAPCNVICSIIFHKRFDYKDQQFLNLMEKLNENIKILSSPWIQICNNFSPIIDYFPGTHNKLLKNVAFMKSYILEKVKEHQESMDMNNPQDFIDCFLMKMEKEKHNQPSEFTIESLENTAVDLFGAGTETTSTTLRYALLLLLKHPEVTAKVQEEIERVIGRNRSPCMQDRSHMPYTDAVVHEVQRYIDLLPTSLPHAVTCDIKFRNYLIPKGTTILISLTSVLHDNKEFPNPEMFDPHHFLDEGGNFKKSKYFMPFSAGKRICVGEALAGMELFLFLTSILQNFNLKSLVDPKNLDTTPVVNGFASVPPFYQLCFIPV
Chain of Cytochrome P450 2C19 (P33261 whole entry): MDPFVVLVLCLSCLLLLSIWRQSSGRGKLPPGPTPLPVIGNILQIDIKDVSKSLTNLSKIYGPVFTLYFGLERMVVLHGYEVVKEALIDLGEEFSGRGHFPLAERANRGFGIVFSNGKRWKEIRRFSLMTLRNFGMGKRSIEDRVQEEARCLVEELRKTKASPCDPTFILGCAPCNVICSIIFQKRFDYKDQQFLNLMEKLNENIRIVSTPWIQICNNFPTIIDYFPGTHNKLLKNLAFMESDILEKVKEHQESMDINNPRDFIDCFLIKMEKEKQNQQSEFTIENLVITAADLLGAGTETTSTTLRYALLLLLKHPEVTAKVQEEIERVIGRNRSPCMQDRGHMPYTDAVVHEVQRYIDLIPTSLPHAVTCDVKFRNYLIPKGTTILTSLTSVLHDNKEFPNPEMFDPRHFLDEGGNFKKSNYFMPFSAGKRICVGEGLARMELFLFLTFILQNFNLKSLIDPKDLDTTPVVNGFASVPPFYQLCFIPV
Chain of Cytochrome P450 3A4 (P08684 whole entry): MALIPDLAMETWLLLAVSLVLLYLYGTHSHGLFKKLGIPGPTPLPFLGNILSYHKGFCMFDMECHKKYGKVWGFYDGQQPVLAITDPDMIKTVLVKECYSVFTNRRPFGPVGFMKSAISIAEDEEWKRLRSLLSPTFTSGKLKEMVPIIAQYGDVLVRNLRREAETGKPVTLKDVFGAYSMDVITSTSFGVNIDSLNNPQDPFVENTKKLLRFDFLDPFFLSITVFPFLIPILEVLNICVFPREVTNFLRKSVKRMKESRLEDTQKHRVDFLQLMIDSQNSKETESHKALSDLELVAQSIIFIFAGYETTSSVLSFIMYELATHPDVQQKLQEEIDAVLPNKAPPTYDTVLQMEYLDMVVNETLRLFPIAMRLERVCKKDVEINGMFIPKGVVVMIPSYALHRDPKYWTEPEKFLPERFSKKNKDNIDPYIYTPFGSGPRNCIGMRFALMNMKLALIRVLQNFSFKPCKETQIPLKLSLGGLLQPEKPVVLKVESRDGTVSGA

As for `Nc1ccccc1NC(=O)c1ccc(C2CCN(Cc3ccccc3)CC2)cc1`, the “Log IC50” value at Histone deacetylase is -4.57. For the same molecule, the IC50 at Histone deacetylase 1 was 44.7 nM; with HCT-116, 437 nM.
In the case of `CN(C)C(=O)c1ccc(CN2CCC(c3ccc(C(=O)Nc4ccccc4N)cc3)CC2)cc1`, the IC50 is 85.1 nM at Histone deacetylase 1; 479 nM in the data set on HCT-116; over 10000 nM against Cytochrome P450 3A4; over 10000 nM against Cytochrome P450 2D6; over 10000 nM against Cytochrome P450 2C9; over 10000 nM on Cytochrome P450 2C19. In addition, the clearance in data set [1] was found to be 49 mL/min/kg. Moreover, the values for the half-life in data set [2], in data set [7] and in data set [8] were 1.6 h, 2.1 h and 3.8 h, respectively. Besides, the Vd in data set [3] was found to be 3.1 L/kg. Further, the fraction unbound in data set [4] was found to be 0.28; in data set [5], 0.4. This molecule also came in with a logD in data set [6] of 1.53.
Consider `Nc1ccccc1NC(=O)c1ccc(-c2nccs2)cc1`, for which inhibition in the data set with HCT-116 was half-maximal at 1820 nM (IC50).
In the case of `CN1CCC(c2ccc(C(=O)Nc3ccccc3N)cc2)CC1`, the “Log IC50” value on Histone deacetylase is reported as -5.23. The results for the IC50 at Histone deacetylase 1 and in the data set on HCT-116 were 138 nM and 832 nM, respectively. The same molecule returned a logD in data set [6] of under 0.5.
As to `Nc1ccccc1NC(=O)c1ccc(-c2ncc(CN3CCCCC3)s2)cc1`, the results for the half-maximal inhibitory concentration (IC50) at Histone deacetylase 1 and in the data set on HCT-116 were 21.9 nM and 145 nM, respectively.
As for `CNC(=O)c1ccc(CN2CCC(c3ccc(C(=O)Nc4ccccc4N)cc3)CC2)cc1`, the IC50 is 30.9 nM on Histone deacetylase 1; 437 nM with HCT-116; over 10000 nM against Cytochrome P450 3A4; over 10000 nM on Cytochrome P450 2D6; over 10000 nM on Cytochrome P450 2C9; over 10000 nM on Cytochrome P450 2C19. This molecule displayed a logD in data set [6] of 1.99.
As for `CCNC(=O)c1ccc(CN2CCC(c3ccc(C(=O)Nc4ccccc4N)cc3)CC2)cc1`, the figures for the IC50 at Histone deacetylase 1 and in the data set on HCT-116 were 34.7 nM and 363 nM, respectively. Moreover, in the data set on Homo sapiens, the outcome was Active. Further, the values for the clearance in data set [9], in [10] and in [11] were 16 mL/min/kg, 36 mL/min/kg and 7 mL/min/kg, respectively. In addition, the half-life was 1.7 h in [12]; 4.8 h in [13]; 10.2 h in data set [14]; 3.7 h in [18]; 7.2 h in data set [19]; 3.2 h in data set [8]. For the same molecule, the Vd in [15] was 3.5 L/kg; in data set [16], 5 L/kg; in data set [17], 4.2 L/kg. Besides, the fraction unbound in data set [20] turned out to be 0.21; in [21], 0.33.
On to `CCNCc1cnc(-c2ccc(C(=O)Nc3ccccc3N)cc2)s1`, for which the half-life in [22] was 1.1 h; in [2], 5.2 h; in data set [25], 2.1 h. Moreover, the figures for the IC50 at Histone deacetylase 1 and with HCT-116 were 38 nM and 204 nM, respectively. Besides, the solubility in data set [23] was over 500 µM. The clearance in data set [1] was determined as 38 mL/min/kg. Moreover, the Vd in data set [3] turned out to be 7.3 L/kg. This molecule also gave a fraction unbound in data set [24] of 0.54.
`Nc1ccccc1NC(=O)c1ccc(C2CCN(Cc3ccc(C(=O)NC4CC4)cc3)CC2)cc1`: the IC50 on Histone deacetylase 1 is 57.5 nM; in the data set on HCT-116 it was 417 nM; against Cytochrome P450 3A4, over 10000 nM; on Cytochrome P450 2D6 it was over 10000 nM; against Cytochrome P450 2C9, over 10000 nM; at Cytochrome P450 2C19, over 10000 nM. In data set [6], this molecule returned a logD of 2.31.
`CCCNCc1cnc(-c2ccc(C(=O)Nc3ccccc3N)cc2)s1`: the IC50 is 27.5 nM on Histone deacetylase 1 and 186 nM in the data set on HCT-116. The solubility in data set [23] was over 500 µM.
In the case of `Nc1ccccc1NC(=O)c1ccc(C2CCN(CCC(=O)Nc3ccccc3F)CC2)cc1`, the IC50 is 67.6 nM at Histone deacetylase 1; 302 nM with HCT-116; 10000 nM against Cytochrome P450 3A4; 10000 nM against Cytochrome P450 2D6; 10000 nM on Cytochrome P450 2C9; 10000 nM against Cytochrome P450 2C19. Moreover, the logD in data set [6] came to 2.76.
Turning to `Nc1ccccc1NC(=O)c1ccc(N2CCN(Cc3ccccc3)CC2)cc1`, the “Log IC50” value at Histone deacetylase is given as -4.44. In the data set with HCT-116, this molecule gave an IC50 of 2340 nM.
`Nc1ccccc1NC(=O)c1ccc(N2CCOCC2)cc1`: the “Log IC50” value at Histone deacetylase is given as -4.78. For the same molecule, the IC50 with HCT-116 is 7410 nM. In data set [6], this molecule came in with a logD of 1.2.

A word on the IC50: it is the concentration that gives 50% inhibition. For orientation: clearance means the rate of elimination divided by the concentration. A low value points to a low capacity for elimination. A word on the half-life: it is the time in which the quantity being followed falls by half. Usually fraction unbound stands for free concentration divided by total concentration. A higher fraction unbound goes with much free substance. As usually defined, the logD is lipophilicity at a set pH, counting ionised and neutral species. The solubility is the concentration that dissolves in the medium under given conditions. Lower therefore signals a poorly soluble substance.
